# Where two headings read alike, the source gives them in different places. *1 amine or outer side, *2 acyl side, *3 side chain or, on linkers, in order; H or OH if unused. Where a SMILES comes first, the peptide text is derived from it. Side-chain parts run from the residue outwards. [ ]: non-standard residue; d: D form. The star is where a group is joined. C20 diacid = O=C(O)CCCCCCCCCCCCCCCCCCC(=O)*; C18 diacid = O=C(O)CCCCCCCCCCCCCCCCC(=O)*; γGlu = O=C(O)[C@H](CCC(=O)[*:2])N[*:1]; AEEA = NCCOCCOCC(=O)O; Aib = CC(C)(N)C(=O)O
# Columns and labels:
# human GIP R = molecular target: T1, human GIP R (Homo sapiens, UniProt P48546); experiment: Human GIP receptor (GIP R) activity assay, cAMP induction (AlphaScreen) in HEK293 cells; format: cell-based; conditions: read-out: hGIP-R cAMP EC50 average value
# T1 construct: expressed in transfected cells
# T1 sequence (P48546 22-466): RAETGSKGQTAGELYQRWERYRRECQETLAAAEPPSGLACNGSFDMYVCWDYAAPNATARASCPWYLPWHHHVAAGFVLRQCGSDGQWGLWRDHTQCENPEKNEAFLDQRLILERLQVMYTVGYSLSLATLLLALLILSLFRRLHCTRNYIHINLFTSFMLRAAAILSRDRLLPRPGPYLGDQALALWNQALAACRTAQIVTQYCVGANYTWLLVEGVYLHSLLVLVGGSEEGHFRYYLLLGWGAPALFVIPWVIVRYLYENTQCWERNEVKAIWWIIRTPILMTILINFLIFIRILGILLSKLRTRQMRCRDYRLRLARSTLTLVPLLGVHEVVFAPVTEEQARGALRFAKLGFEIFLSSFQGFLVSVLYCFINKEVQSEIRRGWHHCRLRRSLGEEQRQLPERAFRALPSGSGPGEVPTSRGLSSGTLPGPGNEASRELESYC
# Method in brief: (§1)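 Stable HEK293 clones expressing human GIP R or GLP-1 R, seeded 1 day before; cells washed in Tyrode's buffer (10 mM HEPES, pH 7.4), stimulated, then lysed. cAMP measured by AlphaScreen bead competition (1 h, room temperature, dark). EC50 = concentration giving half-maximal cAMP elevation, from curves of absolute cAMP (nM) vs log concentration.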
# human GLP-1 R = molecular target: T2, human GLP-1 R (Homo sapiens, UniProt P43220); experiment: Human GLP-1 receptor (GLP-1 R) activity assay, cAMP induction (AlphaScreen) in HEK293 cells; format: cell-based
# T2 construct: expressed in transfected cells
# Method in brief: as §1
# [1] = Table 2a, secondary assay study
# [2] = Table 2a, secondary assay study, read-out: hGLP1-R cAMP EC50 average value
# [3] = Table 2, HEK293 cells expressing human GIP R
# [4] = Table 3, most comprehensive data
# [5] = Table 2, HEK293 cells expressing human GLP-1 R, read-out: hGLP1-R cAMP EC50 average value
# T2 sequence (P43220 24-463): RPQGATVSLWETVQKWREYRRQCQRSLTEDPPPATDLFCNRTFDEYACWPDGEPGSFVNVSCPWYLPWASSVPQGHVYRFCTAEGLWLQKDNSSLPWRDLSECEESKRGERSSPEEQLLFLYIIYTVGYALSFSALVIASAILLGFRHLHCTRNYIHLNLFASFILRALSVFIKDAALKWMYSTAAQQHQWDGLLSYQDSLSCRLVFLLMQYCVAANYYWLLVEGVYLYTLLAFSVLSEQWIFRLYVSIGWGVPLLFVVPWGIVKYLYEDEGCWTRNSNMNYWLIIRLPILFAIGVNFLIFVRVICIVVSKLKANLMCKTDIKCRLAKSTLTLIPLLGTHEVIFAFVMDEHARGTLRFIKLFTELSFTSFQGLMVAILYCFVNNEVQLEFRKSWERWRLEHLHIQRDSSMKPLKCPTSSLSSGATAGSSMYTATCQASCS
Structure (SMILES),EC50 (human GIP R; [1]),EC50 (human GLP-1 R; [2]),EC50 (human GIP R; [3]),EC50 (human GIP R; [4]),EC50 (human GLP-1 R; [5]),"EC50 (human GLP-1 R; Table 3, most comprehensive data, read-out: hGLP-1-R cAMP EC50 average value)"
CC[C@H](C)[C@H](NC(=O)[C@H](CO)NC(=O)[C@H](Cc1ccc(O)cc1)NC(=O)[C@H](CC(=O)O)NC(=O)[C@H](CO)NC(=O)[C@@H](NC(=O)[C@H](Cc1ccccc1)NC(=O)[C@@H](NC(=O)CNC(=O)[C@H](CCC(=O)O)NC(=O)C(C)(C)NC(=O)[C@@H](N)Cc1ccc(O)cc1)[C@@H](C)O)[C@@H](C)O)C(=O)N[C@@H](Cc1ccc(O)cc1)C(=O)N[C@@H](CC(C)C)C(=O)N[C@@H](CCC(=O)O)C(=O)N[C@@H](CCCCN)C(=O)N[C@@H](CCCCNC(=O)COCCOCCNC(=O)COCCOCCNC(=O)CC[C@H](NC(=O)CCCCCCCCCCCCCCCCC(=O)O)C(=O)O)C(=O)N[C@@H](C)C(=O)N[C@@H](CCC(N)=O)C(=O)N[C@@H](CCCNC(=N)N)C(=O)N[C@@H](C)C(=O)N[C@@H](Cc1ccccc1)C(=O)N[C@H](C(=O)N[C@@H](CCC(=O)O)C(=O)N[C@@H](Cc1c[nH]c2ccccc12)C(=O)N[C@@H](CC(C)C)C(=O)N[C@@H](CC(C)C)C(=O)N[C@@H](CCCNC(=N)N)C(=O)N[C@@H](C)C(N)=O)C(C)C [Compound 19] (H-Y[Aib]EGTFTSDYSIYLEKK([AEEA-AEEA-γGlu-C18 diacid])AQRAFVEWLLRA-NH2),0.014 nM,0.022 nM,,,,
CC[C@H](C)[C@H](NC(=O)[C@H](CO)NC(=O)[C@H](Cc1ccc(O)cc1)NC(=O)[C@H](CC(=O)O)NC(=O)[C@H](CO)NC(=O)[C@@H](NC(=O)[C@H](Cc1ccccc1)NC(=O)[C@@H](NC(=O)CNC(=O)[C@H](CCC(=O)O)NC(=O)[C@@H](C)NC(=O)[C@@H](N)Cc1ccc(O)cc1)[C@@H](C)O)[C@@H](C)O)C(=O)N[C@@H](Cc1ccc(O)cc1)C(=O)N[C@@H](CC(C)C)C(=O)N[C@@H](CC(=O)O)C(=O)N[C@@H](CCCCN)C(=O)N[C@@H](CCCCNC(=O)COCCOCCNC(=O)COCCOCCNC(=O)CC[C@H](NC(=O)CCCCCCCCCCCCCCCCC(=O)O)C(=O)O)C(=O)N[C@@H](C)C(=O)N[C@@H](CCC(N)=O)C(=O)N[C@@H](CCCNC(=N)N)C(=O)N[C@@H](C)C(=O)N[C@@H](Cc1ccccc1)C(=O)N[C@H](C(=O)N[C@@H](CCC(=O)O)C(=O)N[C@@H](Cc1c[nH]c2ccccc12)C(=O)N[C@@H](CC(C)C)C(=O)N[C@@H](CC(C)C)C(=O)N[C@@H](C)C(=O)N[C@@H](CCC(N)=O)C(=O)NCC(=O)N1CCC[C@H]1C(=O)N[C@@H](CO)C(=O)N[C@@H](CO)C(=O)NCC(=O)N[C@@H](C)C(=O)N1CCC[C@H]1C(=O)N1CCC[C@H]1C(=O)N1CCC[C@H]1C(=O)N[C@@H](CO)C(N)=O)C(C)C [Compound 9] (H-Y[dA]EGTFTSDYSIYLDKK([AEEA-AEEA-γGlu-C18 diacid])AQRAFVEWLLAQGPSSGAPPPS-NH2),0.009 nM,0.039 nM,0.0088 nM,0.009 nM,0.038 nM,
CC[C@H](C)[C@H](NC(=O)[C@H](CO)NC(=O)[C@H](CC(C)C)NC(=O)[C@H](CC(=O)O)NC(=O)[C@H](CO)NC(=O)[C@@H](NC(=O)[C@H](Cc1ccccc1)NC(=O)[C@@H](NC(=O)CNC(=O)[C@H](CCC(=O)O)NC(=O)C(C)(C)NC(=O)[C@@H](N)Cc1ccc(O)cc1)[C@@H](C)O)[C@@H](C)O)C(=O)N[C@@H](C)C(=O)N[C@@H](CC(C)C)C(=O)N[C@@H](CCC(=O)O)C(=O)N[C@@H](CCCCN)C(=O)N[C@@H](CCCCNC(=O)COCCOCCNC(=O)COCCOCCNC(=O)CC[C@H](NC(=O)CCCCCCCCCCCCCCCCCCC(=O)O)C(=O)O)C(=O)N[C@@H](C)C(=O)N[C@@H](CCC(N)=O)C(=O)N[C@@H](CCCNC(=N)N)C(=O)N[C@@H](C)C(=O)N[C@@H](Cc1ccccc1)C(=O)N[C@H](C(=O)N[C@@H](CCC(=O)O)C(=O)N[C@@H](Cc1c[nH]c2ccccc12)C(=O)N[C@@H](CC(C)C)C(=O)N[C@@H](CCC(=O)O)C(=O)N[C@@H](C)C(=O)N[C@@H](CCC(N)=O)C(=O)N[C@@H](CCCCN)C(N)=O)C(C)C [Compound 26] (H-Y[Aib]EGTFTSDLSIALEKK([AEEA-AEEA-γGlu-C20 diacid])AQRAFVEWLEAQK-NH2),,,,0.58 nM,0.014 nM,
CC[C@H](C)[C@H](NC(=O)[C@H](CO)NC(=O)[C@H](CC(C)C)NC(=O)[C@H](CC(=O)O)NC(=O)[C@H](CO)NC(=O)[C@@H](NC(=O)[C@H](Cc1ccccc1)NC(=O)[C@@H](NC(=O)CNC(=O)[C@H](CCC(=O)O)NC(=O)C(C)(C)NC(=O)[C@@H](N)Cc1ccc(O)cc1)[C@@H](C)O)[C@@H](C)O)C(=O)N[C@@H](C)C(=O)N[C@@H](CC(C)C)C(=O)N[C@@H](CCC(=O)O)C(=O)N[C@@H](CCCCN)C(=O)N[C@@H](CCCCNC(=O)COCCOCCNC(=O)COCCOCCNC(=O)CC[C@H](NC(=O)CCCCCCCCCCCCCCCCC(=O)O)C(=O)O)C(=O)N[C@@H](C)C(=O)N[C@@H](CCC(N)=O)C(=O)N[C@@H](CCCNC(=N)N)C(=O)N[C@@H](C)C(=O)N[C@@H](Cc1ccccc1)C(=O)N[C@H](C(=O)N[C@@H](CCC(=O)O)C(=O)N[C@@H](Cc1c[nH]c2ccccc12)C(=O)N[C@@H](CC(C)C)C(=O)N[C@@H](CC(C)C)C(=O)N[C@@H](C)C(=O)N[C@@H](CCC(N)=O)C(=O)N[C@@H](CCCCN)C(N)=O)C(C)C [Compound 18] (H-Y[Aib]EGTFTSDLSIALEKK([AEEA-AEEA-γGlu-C18 diacid])AQRAFVEWLLAQK-NH2),0.011 nM,0.006 nM,,,,
CC[C@H](C)[C@H](NC(=O)[C@H](CO)NC(=O)[C@H](Cc1ccc(O)cc1)NC(=O)[C@H](CC(=O)O)NC(=O)[C@H](CO)NC(=O)[C@@H](NC(=O)[C@H](Cc1ccccc1)NC(=O)[C@@H](NC(=O)CNC(=O)[C@H](CCC(=O)O)NC(=O)C(C)(C)NC(=O)[C@@H](N)Cc1ccc(O)cc1)[C@@H](C)O)[C@@H](C)O)C(=O)N[C@@H](C)C(=O)N[C@@H](CC(C)C)C(=O)N[C@@H](CC(=O)O)C(=O)N[C@@H](CCCCN)C(=O)N[C@@H](CCCCNC(=O)COCCOCCNC(=O)COCCOCCNC(=O)CC[C@H](NC(=O)CCCCCCCCCCCCCCCCCCC(=O)O)C(=O)O)C(=O)N[C@@H](C)C(=O)N[C@@H](CCC(N)=O)C(=O)N[C@@H](CCCNC(=N)N)C(=O)N[C@@H](C)C(=O)N[C@@H](Cc1ccccc1)C(=O)N[C@H](C(=O)N[C@@H](CCC(=O)O)C(=O)N[C@@H](Cc1c[nH]c2ccccc12)C(=O)N[C@@H](CC(C)C)C(=O)N[C@@H](CC(C)C)C(=O)N[C@@H](C)C(=O)N[C@@H](CCC(N)=O)C(=O)NCC(=O)N1CCC[C@H]1C(=O)N[C@@H](CO)C(=O)N[C@@H](CO)C(=O)NCC(=O)N[C@@H](C)C(=O)N1CCC[C@H]1C(=O)N1CCC[C@H]1C(=O)N1CCC[C@H]1C(=O)N[C@@H](CO)C(N)=O)[C@@H](C)CC [Compound 50] (H-Y[Aib]EGTFTSDYSIALDKK([AEEA-AEEA-γGlu-C20 diacid])AQRAFIEWLLAQGPSSGAPPPS-NH2),,,,0.007 nM,,0.015 nM
CC[C@H](C)[C@H](NC(=O)[C@H](Cc1ccccc1)NC(=O)[C@H](CCC(=O)O)NC(=O)[C@H](CCCCN)NC(=O)[C@H](C)NC(=O)[C@H](C)NC(=O)[C@H](CCCCNC(=O)COCCOCCNC(=O)COCCOCCNC(=O)CC[C@H](NC(=O)CCCCCCCCCCCCCCCCC(=O)O)C(=O)O)NC(=O)[C@H](CCC(=O)O)NC(=O)[C@H](CC(=O)O)NC(=O)[C@H](CC(C)C)NC(=O)[C@H](Cc1ccc(O)cc1)NC(=O)[C@@H](NC(=O)[C@H](CO)NC(=O)[C@H](Cc1ccc(O)cc1)NC(=O)[C@H](CC(=O)O)NC(=O)[C@H](CO)NC(=O)[C@@H](NC(=O)[C@H](Cc1ccccc1)NC(=O)[C@@H](NC(=O)CNC(=O)[C@H](CCC(=O)O)NC(=O)C(C)(C)NC(=O)[C@@H](N)Cc1ccc(O)cc1)[C@@H](C)O)[C@@H](C)O)[C@@H](C)CC)C(=O)N[C@@H](CCC(=O)O)C(=O)N[C@@H](Cc1c[nH]c2ccccc12)C(=O)N[C@@H](CC(C)C)C(=O)N[C@@H](CCC(=O)O)C(=O)N[C@@H](CO)C(=O)N[C@@H](C)C(N)=O [Compound 14],0.147 nM,0.056 nM,,,,
CC[C@H](C)[C@H](NC(=O)[C@H](CO)NC(=O)[C@H](Cc1ccc(O)cc1)NC(=O)[C@H](CC(=O)O)NC(=O)[C@H](CO)NC(=O)[C@@H](NC(=O)[C@H](Cc1ccccc1)NC(=O)[C@@H](NC(=O)CNC(=O)[C@H](CCC(=O)O)NC(=O)C(C)(C)NC(=O)[C@@H](N)Cc1ccc(O)cc1)[C@@H](C)O)[C@@H](C)O)C(=O)N[C@@H](Cc1ccc(O)cc1)C(=O)N[C@@H](CC(C)C)C(=O)N[C@@H](CC(=O)O)C(=O)N[C@@H](CCCCN)C(=O)N[C@@H](CCCCNC(=O)COCCOCCNC(=O)COCCOCCNC(=O)COCCOCCNC(=O)CC[C@H](NC(=O)CCCCCCCCCCCCCCCCC(=O)O)C(=O)O)C(=O)N[C@@H](C)C(=O)N[C@@H](CCC(N)=O)C(=O)N[C@@H](CCCNC(=N)N)C(=O)N[C@@H](C)C(=O)N[C@@H](Cc1ccccc1)C(=O)N[C@H](C(=O)N[C@@H](CCC(=O)O)C(=O)N[C@@H](Cc1c[nH]c2ccccc12)C(=O)N[C@@H](CC(C)C)C(=O)N[C@@H](CC(C)C)C(=O)N[C@@H](C)C(=O)N[C@@H](CCC(N)=O)C(=O)NCC(=O)N1CCC[C@H]1C(=O)N[C@@H](CO)C(=O)N[C@@H](CO)C(=O)NCC(=O)N[C@@H](C)C(=O)N1CCC[C@H]1C(=O)N1CCC[C@H]1C(=O)N1CCC[C@H]1C(=O)N[C@@H](CO)C(N)=O)C(C)C [Compound 6],0.005 nM,,0.0049 nM,0.005 nM,0.016 nM,
